Assay results from patent US11891365B2, “3-alkyl-4-amido-bicyclic [4,5,0] hydroxamic acids as HDAC inhibitors” (Valo Health, Inc., priority 2015, dated 2024).

Target: T1, Full length human recombinant HDAC6 protein (Homo sapiens, UniProt Q9UBN7)
T1 sequence (Q9UBN7 1-1215): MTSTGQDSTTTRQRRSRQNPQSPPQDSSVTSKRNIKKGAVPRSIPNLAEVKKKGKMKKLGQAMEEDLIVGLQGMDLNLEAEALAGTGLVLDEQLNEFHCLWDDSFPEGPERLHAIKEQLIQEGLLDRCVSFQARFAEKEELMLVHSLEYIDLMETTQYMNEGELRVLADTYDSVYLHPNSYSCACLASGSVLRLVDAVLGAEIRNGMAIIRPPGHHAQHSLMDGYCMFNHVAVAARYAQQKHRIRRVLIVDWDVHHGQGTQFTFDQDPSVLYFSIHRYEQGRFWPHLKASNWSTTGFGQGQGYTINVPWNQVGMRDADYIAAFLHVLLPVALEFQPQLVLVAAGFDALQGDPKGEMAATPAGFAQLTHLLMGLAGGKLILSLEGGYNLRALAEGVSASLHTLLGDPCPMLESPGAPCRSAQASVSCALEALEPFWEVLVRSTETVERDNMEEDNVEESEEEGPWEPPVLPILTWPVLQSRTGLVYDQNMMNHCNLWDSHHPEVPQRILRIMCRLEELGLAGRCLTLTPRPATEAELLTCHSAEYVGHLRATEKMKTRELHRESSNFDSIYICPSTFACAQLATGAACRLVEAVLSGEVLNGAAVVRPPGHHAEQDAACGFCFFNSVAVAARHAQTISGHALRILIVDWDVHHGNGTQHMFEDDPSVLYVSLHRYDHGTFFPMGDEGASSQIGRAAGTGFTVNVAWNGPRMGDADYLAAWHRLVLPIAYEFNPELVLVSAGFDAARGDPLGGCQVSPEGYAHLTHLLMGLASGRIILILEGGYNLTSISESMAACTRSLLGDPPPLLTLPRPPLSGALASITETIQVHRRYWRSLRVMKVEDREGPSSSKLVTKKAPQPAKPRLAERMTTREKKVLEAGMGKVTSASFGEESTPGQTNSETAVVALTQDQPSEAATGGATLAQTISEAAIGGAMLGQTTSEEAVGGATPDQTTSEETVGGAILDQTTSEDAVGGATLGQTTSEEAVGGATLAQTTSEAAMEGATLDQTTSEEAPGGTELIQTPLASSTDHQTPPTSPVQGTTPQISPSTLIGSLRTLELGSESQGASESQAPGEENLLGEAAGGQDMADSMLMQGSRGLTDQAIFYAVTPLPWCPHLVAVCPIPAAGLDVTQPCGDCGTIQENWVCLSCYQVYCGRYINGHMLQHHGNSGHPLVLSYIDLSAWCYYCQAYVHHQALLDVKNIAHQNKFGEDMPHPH
Assay: In vitro histone deacetylase assay: enzymatic HDAC6 electrophoretic mobility shift assay
Format: biochemical
Details: 1 nM enzyme, 2 μM peptide substrate RHKK(Ac)-NH2, 25° C., 12 concentrations; read-out: Inhibitory Concentration (IC50) Values against HDAC6, Activity Range
Procedure: The enzymatic HDAC6 assay was performed using electrophoretic mobility shift assay. […] The enzymatic reactions were assembled in 384 well plates in a total volume of 25 μL in a reaction buffer composing: 100 mM HEPES, pH7.5, 25 mM KCl, 0.1% bovine serum albumin, 0.01% Triton X-100, 1% DMSO (from compounds) 2 μM of the fluorescently labeled peptide substrate and enzyme. The enzyme was added at a final concentration of 1 nM. The peptide substrate RHKK(Ac)—NH2 was used. The compounds were tested at 12 concentrations spaced by 3× dilution intervals. Negative control samples ([…] in the absence of inhibitor) and positive control samples (100%-inhibition) were assembled in replicates of four in each assay plate. The reactions were incubated at 25° C. and quenched by the addition of 45 μL of termination buffer (100 mM HEPES, pH 7.5, 0.01% Triton X-100, 0.05% SDS).
The terminated assay plates were analyzed on LabChip® 3000 microfluidic electrophoresis instrument (Perkin Elmer/Caliper Life Sciences). The fluorescence intensity of the electrophoretically separated de-acetylated product and substrate peptide was measured. Activity in each sample was determined as the product to sum ratio (PSR): P/(S+P), where P is the peak height of the product peptide and S is the peak height of the substrate peptide. Percent inhibition (Pinh) is determined using the following equation:
Pinh=(PSR0%−PSRinh)/(PSR0%−PSR100%)*100, where PSRinh is the product sum ratio in the presence of inhibitor, PSR0% is the average product sum ration in the absence of inhibitor and PSR100% is the average product sum ratio in 100%-inhibition control samples. The IC50 values of inhibitors were determined by fitting the %-inhibition curves with 4 parameter dose-response model using XLfit 4 software.

| Structure (SMILES) | IC50 |
| --- | --- |
| CC1(C(=O)N2CCOc3cc(C(=O)NO)ccc3C2)COC1 [N-hydroxy-4-(3-methyloxetane-3-carbonyl)-2,3,4,5-tetrahydrobenzo[f][1,4]oxazepine-8-carboxamide] | ≤ 100 nM |
| O=C(NO)c1ccc2c(c1)OCCN(C(=O)C1(c3cccs3)CC1)C2 [N-hydroxy-4-(1-(thiophen-2-yl)cyclopropane-1-carbonyl)-2,3,4,5-tetrahydrobenzo[f][1,4]oxazepine-8-carboxamide] | ≤ 100 nM |
| COC[C@@H]1COc2cc(C(=O)NO)ccc2CN1C(=O)C1CCOCC1 [(R)-N-hydroxy-3-(methoxymethyl)-4-(tetrahydro-2H-pyran-4-carbonyl)-2,3,4,5-tetrahydrobenzo[f][1,4]oxazepine-8-carboxamide] | > 500 nM |
| O=C(NO)c1ccc2c(c1)OCCN(C(=O)c1ccc3[nH]ccc3c1)C2 [N-hydroxy-4-(1H-indole-5-carbonyl)-2,3,4,5-tetrahydrobenzo[f][1,4]oxazepine-8-carboxamide] | ≤ 100 nM |
| O=C(NO)c1ccc2c(c1)OCCN(C(=O)[C@H]1CCCOC1)C2 [(S)-N-hydroxy-4-(tetrahydro-2H-pyran-3-carbonyl)-2,3,4,5-tetrahydrobenzo[f][1,4]oxazepine-8-carboxamide] | ≤ 100 nM |
| CC(C)(C(=O)N1CCOc2cc(C(=O)NO)ccc2C1)c1cccs1 [N-hydroxy-4-(2-methyl-2-(thiophen-2-yl)propanoyl)-2,3,4,5-tetrahydrobenzo[f][1,4]oxazepine-8-carboxamide] | ≤ 100 nM |
| O=C(NO)c1ccc2c(c1)OCCN(C(=O)C1CCOCC1)C2 [N-hydroxy-4-(tetrahydro-2H-pyran-4-carbonyl)-2,3,4,5-tetrahydrobenzo[f][1,4]oxazepine-8-carboxamide] | ≤ 100 nM |
| O=C(NO)c1ccc2c(c1)OCCN(C(=O)[C@@H]1CCOC1)C2 [(R)-N-hydroxy-4-(tetrahydrofuran-3-carbonyl)-2,3,4,5-tetrahydrobenzo[f][1,4]oxazepine-8-carboxamide] | ≤ 100 nM |
| CCC1(C(=O)N2Cc3ccc(C(=O)NO)cc3OC[C@@H]2C)COC1 [(S)-4-(3-ethyloxetane-3-carbonyl)-N-hydroxy-3-methyl-2,3,4,5-tetrahydrobenzo[f][1,4]oxazepine-8-carboxamide] | ≤ 100 nM |
| C[C@H]1COc2cc(C(=O)NO)ccc2CN1C(=O)CCOC1CCOCC1 [(S)-N-hydroxy-3-methyl-4-(3-((tetrahydro-2H-pyran-4-yl)oxy)propanoyl)-2,3,4,5-tetrahydrobenzo[f][1,4]oxazepine-8-carboxamide] | 100 to 500 nM |
| O=C(NO)c1ccc2c(c1)OCCN(C(=O)C1COC1)C2 [N-hydroxy-4-(oxetane-3-carbonyl)-2,3,4,5-tetrahydrobenzo[f][1,4]oxazepine-8-carboxamide] | ≤ 100 nM |
| CC(C)C1OCCC1C(=O)N1Cc2ccc(C(=O)NO)cc2OC[C@@H]1C (stereo partly drawn) [(3S)-N-hydroxy-4-(2-isopropyltetrahydrofuran-3-carbonyl)-3-methyl-2,3,4,5-tetrahydrobenzo[f][1,4]oxazepine-8-carboxamide] | ≤ 100 nM |
| CC(C)[C@@H]1CN(C(=O)C2(C)CCC2)Cc2ccc(C(=O)NO)cc2O1 [(R)-N-hydroxy-2-isopropyl-4-(1-methylcyclobutane-1-carbonyl)-2,3,4,5-tetrahydrobenzo[f][1,4]oxazepine-8-carboxamide] | 100 to 500 nM |
| CC(=O)N1Cc2ccc(C(=O)NO)cc2OCC1(C)C [4-acetyl-N-hydroxy-3,3-dimethyl-2,3,4,5-tetrahydrobenzo[f][1,4]oxazepine-8-carboxamide] | 100 to 500 nM |
| C[C@H]1COc2cc(C(=O)NO)ccc2CN1C(=O)C1CC2CCC(C1)O2 (stereo partly drawn) [(3S)-4-(8-oxabicyclo[3.2.1]octane-3-carbonyl)-N-hydroxy-3-methyl-2,3,4,5-tetrahydrobenzo[f][1,4]oxazepine-8-carboxamide] | ≤ 100 nM |
| COCC1(C(=O)N2CCOc3cc(C(=O)NO)ccc3C2)CC1 [N-hydroxy-4-(1-(methoxymethyl)cyclopropane-1-carbonyl)-2,3,4,5-tetrahydrobenzo[f][1,4]oxazepine-8-carboxamide] | ≤ 100 nM |
| O=C(NO)c1ccc2c(c1)OCCN(C(=O)C1Cc3ccccc31)C2 (stereo not shown) [4-(bicyclo[4.2.0]octa-1(6),2,4-triene-7-carbonyl)-N-hydroxy-2,3,4,5-tetrahydrobenzo[f][1,4]oxazepine-8-carboxamide] | ≤ 100 nM |
| C[C@H]1COc2cc(C(=O)NO)ccc2CN1C(=O)[C@@H]1CCOC(C)(C)C1 [(S)-4-((R)-2,2-dimethyltetrahydro-2H-pyran-4-carbonyl)-N-hydroxy-3-methyl-2,3,4,5-tetrahydrobenzo[f][1,4]oxazepine-8-carboxamide] | ≤ 100 nM |
| COc1ccc2[nH]cc(CC(=O)N3CCOc4cc(C(=O)NO)ccc4C3)c2c1 [N-hydroxy-4-(2-(5-methoxy-1H-indol-3-yl)acetyl)-2,3,4,5-tetrahydrobenzo[f][1,4]oxazepine-8-carboxamide] | > 500 nM |
| CC(C)C(O)(C(=O)N1CCOc2cc(C(=O)NO)ccc2C1)c1ccccc1 (stereo not shown) [N-hydroxy-4-(2-hydroxy-3-methyl-2-phenylbutanoyl)-2,3,4,5-tetrahydrobenzo[f][1,4]oxazepine-8-carboxamide] | > 500 nM |
| O=C(NO)c1ccc2c(c1)OCCN(C(=O)C1CCCCC1)C2 [4-(cyclohexanecarbonyl)-N-hydroxy-2,3,4,5-tetrahydrobenzo[f][1,4]oxazepine-8-carboxamide] | ≤ 100 nM |
| O=C(NO)c1ccc2c(c1)OCCN(C(=O)C1(c3ccncc3)CC1)C2 [N-hydroxy-4-(1-(pyridin-4-yl)cyclopropane-1-carbonyl)-2,3,4,5-tetrahydrobenzo[f][1,4]oxazepine-8-carboxamide] | ≤ 100 nM |
| O=C(NO)c1ccc2c(c1)OCCN(C(=O)CN1CCS(=O)(=O)CC1)C2 [4-(2-(1,1-dioxidothiomorpholino)acetyl)-N-hydroxy-2,3,4,5-tetrahydrobenzo[f][1,4]oxazepine-8-carboxamide] | > 500 nM |
| CC(C)(C(=O)N1CCOc2cc(C(=O)NO)ccc2C1)n1cc(Cl)cn1 [4-(2-(4-chloro-1H-pyrazol-1-yl)-2-methylpropanoyl)-N-hydroxy-2,3,4,5-tetrahydrobenzo[f][1,4]oxazepine-8-carboxamide] | ≤ 100 nM |
| O=C(NO)c1ccc2c(c1)OCCN(C(=O)CN1CCOCC1)C2 [N-hydroxy-4-(2-morpholinoacetyl)-2,3,4,5-tetrahydrobenzo[f][1,4]oxazepine-8-carboxamide] | > 500 nM |
| CC(C)C(=O)N1CCOc2cc(C(=O)NO)ccc2C1 [N-hydroxy-4-isobutyryl-2,3,4,5-tetrahydrobenzo[f][1,4]oxazepine-8-carboxamide] | ≤ 100 nM |
| O=C(NO)c1ccc2c(c1)OCCN(C(=O)c1ccc(OC(F)F)cc1)C2 [4-(4-(difluoromethoxy)benzoyl)-N-hydroxy-2,3,4,5-tetrahydrobenzo[f][1,4]oxazepine-8-carboxamide] | 100 to 500 nM |
| CC(C)(C)OC(=O)N1CCC2(CCC(C(=O)N3CCOc4cc(C(=O)NO)ccc4C3)CC2)C1 (stereo not shown) [tert-butyl 8-(8-(hydroxycarbamoyl)-2,3,4,5-tetrahydrobenzo[f][1,4]oxazepine-4-carbonyl)-2-azaspiro[4.5]decane-2-carboxylate] | ≤ 100 nM |
